Tests used:
Assay type in all cases: in vivo
[1] = system: cats suffering behavior aberrations and/or anxiety; experiment: Example 13: behavior aberrations and anxiety, Fe-BARQ (feline, CBD Complex); conditions: Fe-BARQ day 0 vs 60, SID, 0 (no improvement) to 3 (marked improvement)
Description: This example examines the ability of embodiments of the invention versus Clomicalm® to reduce behavior aberrations and anxiety.
The first patient group is twenty dogs suffering behavior aberrations and/or anxiety, as determined by the canine behavioral assessment and research questionnaire (“C-BARQ”). […] The second patient group is twenty cats suffering behavior aberrations and/or anxiety, as determined by the feline behavioral assessment and research questionnaire (“Fe-BARQ”).
Each group is broken into five groups of four animals. The first group receives Clomicalm® as the sole active agent; the second group receives a composition comprising HMW HA as the sole active agent; the third group receives a composition comprising CBD as the sole active agent; the fourth group receives a composition comprising HMW HA and CBD Complex as the active agents; and the fifth group receives a composition comprising HMW HA, CBD Complex, valerian root, and scutillaria as the active agents.
Each composition is administered for a period of sixty (60) days, once a day (“SID”). Owners complete the species-appropriate C-BARQ or Fe-BARQ on days 0 and 60 of treatment. The results from the overall questionnaire are averaged and characterized as no improvement (score of 0), mild improvement (score of 1), moderate improvement (score of 2), or marked improvement (score of 3).

[2] = system: cats suffering from joint inflammation; experiment: Example 12: joint inflammation, thermal imaging (feline, CBD Complex); conditions: over the inflamed joint, 60 days BID
Description: (§1) This example examines the ability of embodiments of the invention versus Cosequin® to treat joint inflammation.
(§2) The first patient group is twenty dogs suffering from joint inflammation. The second patient group is twenty cats suffering from joint inflammation. The third patient group is twenty horses suffering from joint inflammation. Each patient group is broken into five groups of four animals. The first groups receive Cosequin® as the sole active agent; the second groups receive a composition comprising HMW HA as the sole active agent; the third groups receive a composition comprising CBD as the sole active agent; the fourth groups receive a composition comprising HMW HA and CBD Complex as the active agents; and the fifth groups receive a composition comprising HMW HA, CBD Complex, Boswellia, and superoxide dismutase (“SOD”) as the active agents.
(§3) Each composition is administered for a period of sixty (60) days, BID. Efficacy is determined by a decrease in body temperature over the inflamed joint, as measured by thermal imaging (e.g., via Digatherm device). Thermal imaging is performed on days 0 (“Initial Score”), 15, 30, 45, and 60 (“Final Score”) of treatment.
The following feline scores are observed and the results depicted in FIG. 12b: […]

[3] = system: dogs suffering from cognitive dysfunction syndrome; experiment: Example 2: cognitive decline, Cognitive Dysfunction Screening Checklist; conditions: for Average Initial Score: day 0 (before treatment); for Average Final Score: day 60, BID
Description: This example examines the ability of embodiments of the invention versus Anipryl® to treat cognitive decline.
The patient group is twenty dogs suffering from cognitive dysfunction syndrome, as determined by the Cognitive Dysfunction Screening Checklist. See G. Landsberg et al., 2003 HANDBOOK OF BEHAVIOR PROBLEMS OF THE DOG AND CAT (Elsevier Science Limited) (2003). The twenty dogs are broken into five groups of four dogs. The first group receives Anipryl® as the sole active agent; the second group receives a composition comprising HMW HA as the sole active agent; the third group receives a composition comprising CBD as the sole active agent; the fourth group receives a composition comprising HMW HA and CBD as the active agents; and the fifth group receives a composition comprising HMW HA, CBD, nicotinamide adenine dinucleotide (“NAD”), and phosphatidylserine as the active agents.
Each composition is administered for a period of sixty (60) days, twice per day (“BID”). The owner completes the Checklist on days 0 (“Initial Score”), 15, 30, 45, and 60 (“Final Score”) of treatment.
Each group is evaluated and Checklist scores averaged. The following scores are observed and the results depicted in FIG. 2: […]

[4] = system: horses suffering from joint inflammation; experiment: Example 12: joint inflammation, thermal imaging (equine, CBD Complex); conditions: over the inflamed joint, 60 days BID
Description: as §1, §2, §3
The following equine scores are observed and the results depicted in FIG. 12c: […]

[5] = system: dogs suffering from seizures; experiment: Example 14: seizures in dogs (CBD Complex); conditions: seizure scale 1 (seizure-free) to 10 (daily or multiple seizures); for Initial Score: day 0; for Final Score: day 60, BID
Description: This example examines the ability of embodiments of the invention versus phenobarbital to treat seizures.
The patient group is twenty-four dogs suffering from seizures as diagnosed by their referring veterinarian. The patient group is broken into six groups of four animals. The first group receives phenobarbital as the sole active agent; the second group receives a composition comprising phenobarbital and Keppra®; the third group receives a composition comprising HMW HA as the sole active agent; the fourth group receives a composition comprising CBD as the sole active agent; the fifth group receives a composition comprising HMW HA and CBD Complex as the active agents; and the sixth group receives a composition comprising HMW HA, CBD Complex, valerian root, and scutillaria as the active agents.
Each composition is administered for a period of sixty (60) days, BID. Each dog is evaluated on days 0 (“Initial Score”), 15, 30, 45, and 60 (“Final Score”) of treatment. The results are averaged and characterized on a scale of 1 (seizure-free) to 10 (daily seizures or multiple seizures during the event).
The following canine scores are observed and the results depicted in FIG. 14: […]

[6] = system: dogs suffering from joint inflammation; experiment: Example 4: joint inflammation, thermal imaging (canine); conditions: over the inflamed joint, 60 days BID
Description: as §1
The first patient group is twenty dogs suffering from joint inflammation. The second patient group is twenty cats suffering from joint inflammation. The third patient group is twenty horses suffering from joint inflammation. Each patient group is broken into five groups of four animals. The first groups receive Cosequin® as the sole active agent; the second groups receive a composition comprising HMW HA as the sole active agent; the third groups receive a composition comprising CBD as the sole active agent; the fourth groups receive a composition comprising HMW HA and CBD as the active agents; and the fifth groups receive a composition comprising HMW HA, CBD, Boswellia, and superoxide dismutase (“SOD”) as the active agents.
as §3
The following canine scores are observed and the results depicted in FIG. 4a: […]

Row | Compound | Improvement Score [1] | Reduction in Temperature (° F.) [2] | Average Initial Score [3] | Average Final Score [3] | Reduction in Temperature (° F.) [4] | Initial Score [5] | Final Score [5] | Reduction in Temperature (° F.) [6]
1 | C=C(C)[C@@H]1CCC(C)=C[C@H]1c1c(O)cc(CCCCC)cc1O [CBD Alone, 2-[(1R,6R)-3-methyl-6-prop-1-en-2-ylcyclohex-2-en-1-yl]-5-pentylbenzene-1,3-diol] | 1.8 | 2.0 ° F. | 3 | 1.5 | 1.6 ° F. | 9 | 4 | 1.7 ° F.
2 | hyaluronic acid [HMW HA Alone] | 1 | 2.3 ° F. | 3 | 2 | 2.1 ° F. | 9 | 5 | 1.9 ° F.
